Some test systems named below: NCI-H23 lung; MCF7 breast; SK-MEL-28 melanoma; SN12C renal; TK-10 renal; 786-0 renal; SNB-19 CNS; OVCAR-8 ovarian; MALME-3M melanoma; NCI-H226 lung.
Holding throughout (experiment): NCI-60 cell line screen, 48 h

Experimental findings from PubChem BioAssay (NCI) are described below.

Where “and” joins values, the source holds several entries; their conditions need not be identical. Identical values can stand only once.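 Tested at 5 concentrations; 48 h exposure; 96-well plates; endpoints linearly interpolated, else capped at highest concentration. The concentration for full growth arrest is given as TGI.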

Take `O=C(/C=C\c1ccccc1)Oc1ccc(/C=C2\CCC/C(=C\c3ccc(OC(=O)/C=C\c4ccccc4)cc3)C2=O)cc1`: the TGI in the assay with NCI-H23 lung, in the assay on MCF7 breast, in the assay with SK-MEL-28 melanoma, with SN12C renal, in the assay with TK-10 renal and in the assay on 786-0 renal was above 100 µM throughout. Moreover, the TGI in the assay on SNB-19 CNS and in the assay with OVCAR-8 ovarian was above 100 µM throughout.
Take `Cc1ccc(S(=O)(=O)OCCN(CCOS(=O)(=O)c2ccc(C)cc2)c2ccc(C=O)cc2)cc1`: the TGI was above 100 µM with NCI-H23 lung; 92.9 µM in the assay on MCF7 breast; 81.3 µM in the assay on SK-MEL-28 melanoma; 97.3 µM in the assay on MALME-3M melanoma; above 100 µM with TK-10 renal; above 100 µM in the assay on SNB-19 CNS. Further, in the assay on OVCAR-8 ovarian, the TGI is above 100 µM.
In the case of `COc1ccc2oc(=O)c(-c3cc4c(c(C)n3)c(=O)oc3ccc(OC)cc34)cc2c1`, the TGI in the assay with NCI-H23 lung, in the assay with MCF7 breast, in the assay on NCI-H226 lung, in the assay on SK-MEL-28 melanoma, with SN12C renal and in the assay with TK-10 renal was above 100 µM each time. Further, the results for the TGI with 786-0 renal, in the assay on SNB-19 CNS and in the assay on OVCAR-8 ovarian were 4.34 µM, 57.6 µM and above 100 µM, respectively.
For the compound `COC(=O)Nc1cc(OCCCOC(C)=O)c2[nH]c(C(=O)OC)cc2c1C[C@H](O)CO`, the TGI in the assay on NCI-H23 lung, with MCF7 breast, in the assay on NCI-H226 lung, in the assay with SK-MEL-28 melanoma, in the assay on SN12C renal and in the assay on TK-10 renal was above 100 µM throughout. The TGI with 786-0 renal, in the assay on SNB-19 CNS and with OVCAR-8 ovarian was above 100 µM throughout.
`CCCCCCCCCCCCOCC(COP(=O)(O)OCCN=[N+]=[N-])OC(=O)CCCCCCCCCCC` (stereo unspecified): the TGI in the assay on NCI-H23 lung, with MCF7 breast, in the assay with SK-MEL-28 melanoma, in the assay on SN12C renal, in the assay on MALME-3M melanoma and with TK-10 renal was above 100 µM in each case. The TGI in the assay with 786-0 renal, in the assay with SNB-19 CNS and with OVCAR-8 ovarian was above 100 µM throughout.
With `COc1ccc(C(=CCC(C)C2CCC3[C@@H]4C(OC(C)=O)CC5CC(OC(C)=O)CC[C@]5(C)C4CC(OC(C)=O)[C@]23C)c2ccc(OC)cc2)cc1` (stereo partly specified), the TGI in the assay with MCF7 breast, in the assay on SK-MEL-28 melanoma, in the assay with SN12C renal, in the assay on TK-10 renal, in the assay with 786-0 renal and in the assay on SNB-19 CNS was above 100 µM in each case. In addition, the TGI in the assay with OVCAR-8 ovarian is above 100 µM.
As to `COc1cc2c(cc1O)C(Cc1ccc(OCc3ccccc3)c(OCc3ccccc3)c1)N(C(=O)NCCc1ccccc1)CC2` (stereo unspecified), the TGI in the assay with NCI-H23 lung, in the assay on MCF7 breast, in the assay with NCI-H226 lung, in the assay with SN12C renal, with MALME-3M melanoma and with TK-10 renal was above 100 µM in each case. The TGI in the assay with 786-0 renal, in the assay on SNB-19 CNS and in the assay on OVCAR-8 ovarian was above 100 µM throughout.
With `Cc1ccc(S(=O)(=O)NC(=O)Nc2ccc(C(=O)O)cc2)cc1`, the TGI in the assay on NCI-H23 lung, with MCF7 breast, with SK-MEL-28 melanoma, with SN12C renal, in the assay on MALME-3M melanoma and in the assay on TK-10 renal was above 100 µM throughout. Besides, the TGI in the assay with 786-0 renal, with SNB-19 CNS and in the assay with OVCAR-8 ovarian was above 100 µM in each case.
In the case of `CCOC(=O)C(Cc1ccc(N=NN(C)C)cc1)NC(=O)CC1c2ccccc2-c2ccccc21` (stereo unspecified), the TGI with NCI-H23 lung, in the assay on NCI-H226 lung, in the assay with SK-MEL-28 melanoma, with SN12C renal, in the assay on MALME-3M melanoma and with TK-10 renal was above 100 µM each time. Further, the TGI in the assay on 786-0 renal, in the assay with SNB-19 CNS and in the assay with OVCAR-8 ovarian was above 100 µM each time.
Consider `C/C(CCN(C)C)=N/O`, for which the TGI turned out to be 25.5 µM with NCI-H23 lung; 63.9 µM with NCI-H226 lung; 14.8 µM with SK-MEL-28 melanoma; 27.3 µM in the assay on SN12C renal; 10.8 µM with MALME-3M melanoma; 20.2 µM in the assay with TK-10 renal. In addition, the TGI in the assay on 786-0 renal is 13.2 µM; in the assay on SNB-19 CNS it was above 100 µM; in the assay on OVCAR-8 ovarian it was 22.8 µM.
Consider `CC[C@]1(c2ccc3c(c2)OCO3)C=[N+]([O-])O[C@H](OC2CCCC2(c2ccccc2)c2ccccc2)[C@@H]1OC(C)=O` (stereo partly specified), for which the TGI with NCI-H23 lung is 8.68 µM; in the assay on MCF7 breast, above 24.1 µM; in the assay on NCI-H226 lung, 22.7 µM; in the assay on SN12C renal, above 22.3 µM; in the assay with TK-10 renal, 11.6 µM; with 786-0 renal, 3.77 µM. Besides, the TGI in the assay with SNB-19 CNS is 12.7 µM.
For `CN1C(c2ccccc2)CC(O)CC1c1ccccc1` (stereo unspecified), the TGI in the assay on NCI-H23 lung, with NCI-H226 lung, in the assay on SK-MEL-28 melanoma, with SN12C renal, with MALME-3M melanoma and with TK-10 renal was above 100 µM throughout. For the same compound, the TGI in the assay on 786-0 renal, with SNB-19 CNS and with OVCAR-8 ovarian was above 100 µM each time.
Consider `O=C(/C=C/c1ccccc1)c1cc(CN2CCOCC2)c(O)c(CN2CCOCC2)c1`, for which the TGI with NCI-H23 lung worked out at 60 µM; in the assay with MCF7 breast, 32.4 µM; with NCI-H226 lung, 64.9 µM; in the assay with SK-MEL-28 melanoma, 29.4 µM; with SN12C renal, 25.3 µM; in the assay on TK-10 renal, 55.6 µM. For the same compound, the TGI was 29 µM in the assay with 786-0 renal, above 100 µM in the assay with SNB-19 CNS and above 100 µM in the assay with OVCAR-8 ovarian.
With `CC(C)(C)C(=O)c1c(O)c2ccccc2c2ccccc2c1=O`, the TGI with NCI-H23 lung, in the assay with MCF7 breast, with NCI-H226 lung, in the assay with SK-MEL-28 melanoma, with SN12C renal and with TK-10 renal was above 100 µM throughout. Besides, the TGI with 786-0 renal, with SNB-19 CNS and in the assay with OVCAR-8 ovarian was above 100 µM each time.
As to `CC(=O)c1c(-c2ccc(Cl)cc2)c(C#N)c(=S)n(C2OC(CO)C(O)C(O)C2O)c1C` (stereo unspecified), the TGI is above 100 µM in the assay with NCI-H23 lung; above 100 µM in the assay on NCI-H226 lung; 87.6 µM with SK-MEL-28 melanoma; above 100 µM in the assay on SN12C renal; above 100 µM with MALME-3M melanoma; above 100 µM in the assay on TK-10 renal. Besides, the TGI in the assay on 786-0 renal was above 100 µM; in the assay on SNB-19 CNS, 84.9 µM; in the assay on OVCAR-8 ovarian, above 100 µM.
Take `Cc1cc2nc(N3C(=O)/C(=C/Cc4ccco4)N=C3c3ccccc3)sc2cc1C`: the TGI in the assay on MCF7 breast was 40.4 µM; in the assay on SK-MEL-28 melanoma it was above 100 µM; in the assay with SN12C renal, 87.9 µM; with TK-10 renal it was above 100 µM; in the assay on 786-0 renal, 96.6 µM; in the assay with SNB-19 CNS, above 100 µM. In the assay with OVCAR-8 ovarian, this compound returned a TGI above 100 µM.
Turning to `COC(=O)[C@H](C)NC(=O)[C@H](NS(=O)(=O)c1nc2ccccc2s1)c1ccccc1`, the TGI was above 100 µM in the assay on NCI-H23 lung; above 100 µM with MCF7 breast; 30.6 µM in the assay with NCI-H226 lung; 31.9 µM in the assay with SK-MEL-28 melanoma; above 100 µM in the assay on TK-10 renal; 80.4 µM in the assay on 786-0 renal. The TGI worked out at 73.3 µM in the assay on SNB-19 CNS and 33.7 µM in the assay on OVCAR-8 ovarian.
With `Cc1nc(C(=Nc2ccc(Br)cc2)Nn2cnnc2)no1`, the TGI with NCI-H23 lung, with MCF7 breast, in the assay with SK-MEL-28 melanoma, in the assay on MALME-3M melanoma, in the assay with 786-0 renal and in the assay on SNB-19 CNS was above 100 µM throughout. In the assay with OVCAR-8 ovarian, this compound returned a TGI above 100 µM.
On to `COCOC1CCCC[C@@]1(OCCOCCO[C@@]1(c2ccccc2)CCCC[C@H]1OCOC)c1ccccc1` (stereo partly specified), for which the TGI in the assay with NCI-H23 lung, in the assay on NCI-H226 lung, with SK-MEL-28 melanoma, in the assay on SN12C renal, in the assay on MALME-3M melanoma and with TK-10 renal was above 100 µM each time. Moreover, the TGI in the assay on 786-0 renal, with SNB-19 CNS and in the assay on OVCAR-8 ovarian was above 100 µM in each case.
Consider `CC(C)(NO)/C(=N\O)c1ccccc1`, for which the TGI in the assay with NCI-H23 lung, in the assay on MCF7 breast, in the assay on NCI-H226 lung, with SN12C renal, in the assay with MALME-3M melanoma and with TK-10 renal was above 10 µM throughout. The TGI with 786-0 renal, with SNB-19 CNS and in the assay with OVCAR-8 ovarian was above 10 µM in each case.
`COc1ccccc1N=Nc1c(O)ccc2ccccc12`: the TGI with NCI-H23 lung was above 100 µM; in the assay with MCF7 breast, above 100 µM; with SK-MEL-28 melanoma it was above 100 µM; with SN12C renal, above 100 µM; with MALME-3M melanoma, 16.2 µM and > 100 µM; with TK-10 renal it was 31.8 µM and 59.1 µM. Moreover, the TGI in the assay on 786-0 renal is 26.7 µM and 40.3 µM; in the assay with SNB-19 CNS, > 74.7 µM and 90.4 µM; in the assay on OVCAR-8 ovarian, above 100 µM.
On to `COC1=C(OC)C(=O)C(Cc2c(Cl)nc3sccn23)=C(C)C1=O`, for which the TGI in the assay on NCI-H23 lung was determined as 29.2 µM; in the assay on MCF7 breast it was 26.8 µM; in the assay on SK-MEL-28 melanoma, 24.4 µM; with SN12C renal, 26.2 µM; in the assay on MALME-3M melanoma, 13.7 µM; with TK-10 renal it was 26.6 µM. For the same compound, the TGI came out at 33.2 µM with 786-0 renal, 28.1 µM in the assay with SNB-19 CNS and 26.2 µM in the assay with OVCAR-8 ovarian.
